Experiments:
[1] = target: ABL1(F317L)-phosphorylated (Homo sapiens (Human), UniProt P00519, F317L); assay: KINOMEscan scanMAX; type: binding; conditions: 2000 nM; read-out: Percent Control
BRAF = BRAF (Homo sapiens (Human), UniProt P15056); assay: KINOMEscan scanMAX; type: binding; conditions: 2000 nM; read-out: Percent Control
CAMK1D = CAMK1D (Homo sapiens (Human), UniProt Q8IU85); assay: KINOMEscan scanMAX; type: binding; conditions: 2000 nM; read-out: Percent Control
CLK2 = CLK2 (Homo sapiens (Human), UniProt P49760); assay: KINOMEscan scanMAX; type: binding; conditions: 2000 nM; read-out: Percent Control
Chain of CLK2 (P49760 whole entry): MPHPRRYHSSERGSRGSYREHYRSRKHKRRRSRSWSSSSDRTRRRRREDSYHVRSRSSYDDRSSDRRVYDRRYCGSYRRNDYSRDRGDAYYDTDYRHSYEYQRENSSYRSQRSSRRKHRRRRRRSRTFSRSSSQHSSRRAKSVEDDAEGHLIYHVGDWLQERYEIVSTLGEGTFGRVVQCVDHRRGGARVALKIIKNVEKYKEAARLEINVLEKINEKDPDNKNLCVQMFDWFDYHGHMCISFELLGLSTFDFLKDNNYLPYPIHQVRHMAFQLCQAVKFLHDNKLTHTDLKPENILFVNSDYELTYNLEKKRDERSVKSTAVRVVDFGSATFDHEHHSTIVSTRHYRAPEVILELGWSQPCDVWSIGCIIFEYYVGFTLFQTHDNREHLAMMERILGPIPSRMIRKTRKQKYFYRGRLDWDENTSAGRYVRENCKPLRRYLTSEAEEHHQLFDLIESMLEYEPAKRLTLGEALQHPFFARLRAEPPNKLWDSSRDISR

CLK4 = CLK4 (Homo sapiens (Human), UniProt Q9HAZ1); assay: KINOMEscan scanMAX; type: binding; conditions: 2000 nM; read-out: Percent Control
DDR1 = DDR1 (Homo sapiens (Human), UniProt Q08345); assay: KINOMEscan scanMAX; type: binding; conditions: 2000 nM; read-out: Percent Control
EPHA2 = EPHA2 (Homo sapiens (Human), UniProt P29317); assay: KINOMEscan scanMAX; type: binding; conditions: 2000 nM; read-out: Percent Control
EPHB6 = EPHB6 (Homo sapiens (Human), UniProt O15197); assay: KINOMEscan scanMAX; type: binding; conditions: 2000 nM; read-out: Percent Control
FGFR2 = FGFR2 (Homo sapiens (Human), UniProt P21802); assay: KINOMEscan scanMAX; type: binding; conditions: 2000 nM; read-out: Percent Control
FGFR4 = FGFR4 (Homo sapiens (Human), UniProt P22455); assay: KINOMEscan scanMAX; type: binding; conditions: 2000 nM; read-out: Percent Control
FYN = FYN (Homo sapiens (Human), UniProt P06241); assay: KINOMEscan scanMAX; type: binding; conditions: 2000 nM; read-out: Percent Control
HIPK2 = HIPK2 (Homo sapiens (Human), UniProt Q9H2X6); assay: KINOMEscan scanMAX; type: binding; conditions: 2000 nM; read-out: Percent Control
HPK1 (MAP4K1) = HPK1 (MAP4K1) (Homo sapiens (Human), UniProt Q92918); assay: KINOMEscan scanMAX; type: binding; conditions: 2000 nM; read-out: Percent Control
KIT = KIT (Homo sapiens (Human), UniProt P10721); assay: KINOMEscan scanMAX; type: binding; conditions: 2000 nM; read-out: Percent Control
KIT(A829P) = KIT(A829P) (Homo sapiens (Human), UniProt P10721, A829P); assay: KINOMEscan scanMAX; type: binding; conditions: 2000 nM; read-out: Percent Control
LKB1 (STK11) = LKB1 (STK11) (Homo sapiens (Human), UniProt Q15831); assay: KINOMEscan scanMAX; type: binding; conditions: 2000 nM; read-out: Percent Control
Chain of LKB1 (STK11) (Q15831 whole entry): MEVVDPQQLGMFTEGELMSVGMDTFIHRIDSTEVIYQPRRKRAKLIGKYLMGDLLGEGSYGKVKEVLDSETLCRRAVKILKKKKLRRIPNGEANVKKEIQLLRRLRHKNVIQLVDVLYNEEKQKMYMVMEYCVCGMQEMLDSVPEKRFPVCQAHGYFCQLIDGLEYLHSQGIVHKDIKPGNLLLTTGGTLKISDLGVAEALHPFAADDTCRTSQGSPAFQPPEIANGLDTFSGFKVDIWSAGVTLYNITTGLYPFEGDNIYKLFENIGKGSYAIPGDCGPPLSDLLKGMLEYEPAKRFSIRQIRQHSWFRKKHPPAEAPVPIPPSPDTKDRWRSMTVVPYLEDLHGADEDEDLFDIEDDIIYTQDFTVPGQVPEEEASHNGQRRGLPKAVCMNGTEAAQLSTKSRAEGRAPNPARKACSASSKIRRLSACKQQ

MAP3K3 = MAP3K3 (Homo sapiens (Human), UniProt Q99759); assay: KINOMEscan scanMAX; type: binding; conditions: 2000 nM; read-out: Percent Control
MAP4K3 = MAP4K3 (Homo sapiens (Human), UniProt Q8IVH8); assay: KINOMEscan scanMAX; type: binding; conditions: 2000 nM; read-out: Percent Control
MEK1 (MAP2K1) = MEK1 (MAP2K1) (Homo sapiens (Human), UniProt Q02750); assay: KINOMEscan scanMAX; type: binding; conditions: 2000 nM; read-out: Percent Control
MEK4 (MAP2K4) = MEK4 (MAP2K4) (Homo sapiens (Human), UniProt P45985); assay: KINOMEscan scanMAX; type: binding; conditions: 2000 nM; read-out: Percent Control
Chain of MEK4 (MAP2K4) (P45985 whole entry): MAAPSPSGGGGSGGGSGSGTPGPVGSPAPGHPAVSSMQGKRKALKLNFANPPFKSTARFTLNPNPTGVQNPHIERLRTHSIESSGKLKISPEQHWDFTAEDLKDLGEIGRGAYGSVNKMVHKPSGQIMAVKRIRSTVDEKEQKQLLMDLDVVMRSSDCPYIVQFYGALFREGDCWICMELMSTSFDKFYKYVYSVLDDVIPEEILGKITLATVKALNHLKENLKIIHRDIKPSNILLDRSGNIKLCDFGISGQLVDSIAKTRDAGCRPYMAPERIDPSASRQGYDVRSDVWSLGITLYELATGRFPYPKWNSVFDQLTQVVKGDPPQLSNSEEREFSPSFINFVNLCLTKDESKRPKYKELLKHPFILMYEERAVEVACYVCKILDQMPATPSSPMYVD

MKK7 (MAP2K7) = MKK7 (MAP2K7) (Homo sapiens (Human), UniProt O14733); assay: KINOMEscan scanMAX; type: binding; conditions: 2000 nM; read-out: Percent Control
Chain of MKK7 (MAP2K7) (O14733 whole entry): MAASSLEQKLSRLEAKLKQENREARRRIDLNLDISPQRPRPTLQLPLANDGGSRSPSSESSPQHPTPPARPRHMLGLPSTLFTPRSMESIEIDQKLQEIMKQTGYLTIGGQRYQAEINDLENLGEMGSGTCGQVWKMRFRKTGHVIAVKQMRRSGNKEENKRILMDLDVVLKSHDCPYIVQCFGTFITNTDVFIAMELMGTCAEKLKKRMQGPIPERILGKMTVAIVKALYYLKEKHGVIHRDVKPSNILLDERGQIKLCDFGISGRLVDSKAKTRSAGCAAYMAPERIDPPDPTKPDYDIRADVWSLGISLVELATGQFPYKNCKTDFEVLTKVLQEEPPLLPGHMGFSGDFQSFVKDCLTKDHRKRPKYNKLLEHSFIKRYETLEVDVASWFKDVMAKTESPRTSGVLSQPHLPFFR

MLK3 (MAP3K11) = MLK3 (MAP3K11) (Homo sapiens (Human), UniProt Q16584); assay: KINOMEscan scanMAX; type: binding; conditions: 2000 nM; read-out: Percent Control
Chain of MLK3 (MAP3K11) (Q16584 whole entry): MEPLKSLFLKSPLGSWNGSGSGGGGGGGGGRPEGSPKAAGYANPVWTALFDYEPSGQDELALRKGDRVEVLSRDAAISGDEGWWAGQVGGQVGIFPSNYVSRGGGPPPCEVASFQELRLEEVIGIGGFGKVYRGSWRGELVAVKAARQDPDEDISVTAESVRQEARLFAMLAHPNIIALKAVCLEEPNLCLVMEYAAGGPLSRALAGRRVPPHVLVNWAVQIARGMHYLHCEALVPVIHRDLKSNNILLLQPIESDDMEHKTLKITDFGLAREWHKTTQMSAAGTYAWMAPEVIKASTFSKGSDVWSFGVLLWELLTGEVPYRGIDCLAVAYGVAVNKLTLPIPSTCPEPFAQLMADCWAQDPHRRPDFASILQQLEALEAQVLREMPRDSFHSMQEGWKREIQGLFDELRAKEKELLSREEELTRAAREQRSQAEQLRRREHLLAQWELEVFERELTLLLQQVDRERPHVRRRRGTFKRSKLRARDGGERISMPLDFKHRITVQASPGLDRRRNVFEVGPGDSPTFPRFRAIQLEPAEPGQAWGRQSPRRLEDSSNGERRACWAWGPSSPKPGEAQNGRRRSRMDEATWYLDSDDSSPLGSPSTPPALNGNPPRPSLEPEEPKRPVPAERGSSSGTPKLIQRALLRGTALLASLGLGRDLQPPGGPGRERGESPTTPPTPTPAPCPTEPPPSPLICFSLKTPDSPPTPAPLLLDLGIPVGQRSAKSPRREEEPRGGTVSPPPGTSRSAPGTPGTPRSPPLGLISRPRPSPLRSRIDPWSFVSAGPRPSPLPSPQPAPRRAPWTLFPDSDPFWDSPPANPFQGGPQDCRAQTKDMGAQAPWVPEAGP

MRCKB (CDC42BPB) = MRCKB (CDC42BPB) (Homo sapiens (Human), UniProt Q9Y5S2); assay: KINOMEscan scanMAX; type: binding; conditions: 2000 nM; read-out: Percent Control
MUSK = MUSK (Homo sapiens (Human), UniProt O15146); assay: KINOMEscan scanMAX; type: binding; conditions: 2000 nM; read-out: Percent Control
NEK3 = NEK3 (Homo sapiens (Human), UniProt P51956); assay: KINOMEscan scanMAX; type: binding; conditions: 2000 nM; read-out: Percent Control
PDGFRA = PDGFRA (Homo sapiens (Human), UniProt P16234); assay: KINOMEscan scanMAX; type: binding; conditions: 2000 nM; read-out: Percent Control
PHKG2 = PHKG2 (Homo sapiens (Human), UniProt P15735); assay: KINOMEscan scanMAX; type: binding; conditions: 2000 nM; read-out: Percent Control
Chain of PHKG2 (P15735 whole entry): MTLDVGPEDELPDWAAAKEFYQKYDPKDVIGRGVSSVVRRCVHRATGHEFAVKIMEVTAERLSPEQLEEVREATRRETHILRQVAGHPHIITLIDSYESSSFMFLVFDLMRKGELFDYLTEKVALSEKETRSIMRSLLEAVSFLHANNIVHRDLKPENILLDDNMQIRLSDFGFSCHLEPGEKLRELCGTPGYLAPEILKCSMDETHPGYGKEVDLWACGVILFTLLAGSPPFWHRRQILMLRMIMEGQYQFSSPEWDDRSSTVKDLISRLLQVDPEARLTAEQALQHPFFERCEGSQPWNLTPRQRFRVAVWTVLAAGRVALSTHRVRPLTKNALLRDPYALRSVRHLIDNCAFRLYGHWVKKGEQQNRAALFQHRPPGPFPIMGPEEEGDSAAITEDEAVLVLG

PIM2 = PIM2 (Homo sapiens (Human), UniProt Q9P1W9); assay: KINOMEscan scanMAX; type: binding; conditions: 2000 nM; read-out: Percent Control
PKMYT1 = PKMYT1 (Homo sapiens (Human), UniProt Q99640); assay: KINOMEscan scanMAX; type: binding; conditions: 2000 nM; read-out: Percent Control
PKN2 = PKN2 (Homo sapiens (Human), UniProt Q16513); assay: KINOMEscan scanMAX; type: binding; conditions: 2000 nM; read-out: Percent Control
Chain of PKN2 (Q16513 whole entry): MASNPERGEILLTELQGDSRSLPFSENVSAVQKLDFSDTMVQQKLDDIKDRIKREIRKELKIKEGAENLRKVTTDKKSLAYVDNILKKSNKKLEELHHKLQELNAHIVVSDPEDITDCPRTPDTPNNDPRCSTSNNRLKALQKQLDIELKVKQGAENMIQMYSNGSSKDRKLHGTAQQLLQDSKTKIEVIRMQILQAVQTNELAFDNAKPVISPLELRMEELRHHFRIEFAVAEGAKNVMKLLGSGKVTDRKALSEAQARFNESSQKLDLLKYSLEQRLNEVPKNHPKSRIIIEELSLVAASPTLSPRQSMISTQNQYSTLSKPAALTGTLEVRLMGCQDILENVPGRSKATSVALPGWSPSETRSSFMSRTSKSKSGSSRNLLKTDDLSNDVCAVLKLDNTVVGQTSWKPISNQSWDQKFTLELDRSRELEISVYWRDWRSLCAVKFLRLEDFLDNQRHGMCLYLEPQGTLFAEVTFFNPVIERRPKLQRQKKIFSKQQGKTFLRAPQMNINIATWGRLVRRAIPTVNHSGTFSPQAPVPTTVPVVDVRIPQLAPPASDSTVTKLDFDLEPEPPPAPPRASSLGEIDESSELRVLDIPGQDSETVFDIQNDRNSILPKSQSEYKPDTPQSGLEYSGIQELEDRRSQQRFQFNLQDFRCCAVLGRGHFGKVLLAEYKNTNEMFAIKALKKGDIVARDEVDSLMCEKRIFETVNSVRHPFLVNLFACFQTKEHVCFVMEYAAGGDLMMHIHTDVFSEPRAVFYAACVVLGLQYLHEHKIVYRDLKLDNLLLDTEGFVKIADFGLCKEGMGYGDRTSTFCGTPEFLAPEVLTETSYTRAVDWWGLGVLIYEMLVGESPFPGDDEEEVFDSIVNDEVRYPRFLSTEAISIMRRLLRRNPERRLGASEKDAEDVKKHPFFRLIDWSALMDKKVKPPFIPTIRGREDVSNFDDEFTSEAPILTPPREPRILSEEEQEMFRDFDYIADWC

PLK1 = PLK1 (Homo sapiens (Human), UniProt P53350); assay: KINOMEscan scanMAX; type: binding; conditions: 2000 nM; read-out: Percent Control
Chain of PLK1 (P53350 whole entry): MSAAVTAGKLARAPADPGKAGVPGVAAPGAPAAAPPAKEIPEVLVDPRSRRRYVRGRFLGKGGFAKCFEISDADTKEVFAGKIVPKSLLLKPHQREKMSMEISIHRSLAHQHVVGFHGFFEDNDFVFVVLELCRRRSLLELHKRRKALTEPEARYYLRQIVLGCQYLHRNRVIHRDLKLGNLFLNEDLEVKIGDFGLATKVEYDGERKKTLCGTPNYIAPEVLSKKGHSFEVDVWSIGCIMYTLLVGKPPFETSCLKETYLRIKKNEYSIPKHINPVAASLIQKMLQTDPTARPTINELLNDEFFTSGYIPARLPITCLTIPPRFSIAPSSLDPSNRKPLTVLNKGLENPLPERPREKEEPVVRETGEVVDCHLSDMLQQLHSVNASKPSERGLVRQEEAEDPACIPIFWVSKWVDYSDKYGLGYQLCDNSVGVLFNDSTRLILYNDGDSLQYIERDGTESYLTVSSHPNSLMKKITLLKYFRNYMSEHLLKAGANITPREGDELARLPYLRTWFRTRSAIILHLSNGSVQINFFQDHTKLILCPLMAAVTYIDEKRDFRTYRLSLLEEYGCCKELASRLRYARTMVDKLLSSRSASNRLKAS

[2] = target: TYK2(JH1domain-catalytic) (Homo sapiens (Human), UniProt P29597); assay: KINOMEscan scanMAX; type: binding; conditions: 2000 nM; read-out: Percent Control
CXCL1 = assay: QPCR gene expression in TNFα-treated HEK293 cells; type: cell-based, human; conditions: Homo sapiens, HEK293; range stated for all three genes
Source text: (§1) Two types of cell-based assays for CDK8/19 inhibition were used to test the efficacy of quinoline quinolone compounds described herein (FIG. 3A). The first cell-based assay, which measures the effects of CDK8/19 inhibitors on RNA levels of CDK8/19-regulated genes by quantitative reverse transcription-PCR (QPCR), is based on the ability of CDK8/19 inhibitors to suppress the induction of NFκB-inducible genes by TNFα and to inhibit basal expression of MYC in human embryonic kidney (HEK) 293 cells, as previously described. In this assay, 293 cells growing in DMEM (High-glucose) media supplemented with 10% FBS are pre-treated with the tested inhibitors or DMSO control for 1 hour and then treated with 10 ng/mL TNFα (an activator of NFκB) for 2 hours (in the presence or absence of the tested inhibitors), followed by RNA extraction and QPCR analysis of RNA expression of specific genes conducted as described (Chen et al., ibid), using housekeeping genes RPL13A and GAPDH as normalization standards. […] All the quinoline derivatives inhibited the expression of all three genes.

IL8 = assay: QPCR gene expression in TNFα-treated HEK293 cells; type: cell-based, human; conditions: Homo sapiens, HEK293; range stated for all three genes
Source text: as §1

MYC = assay: QPCR gene expression in TNFα-treated HEK293 cells; type: cell-based, human; conditions: Homo sapiens, HEK293; range stated for all three genes
Source text: as §1

Chain of CAMK1D (Q8IU85 whole entry): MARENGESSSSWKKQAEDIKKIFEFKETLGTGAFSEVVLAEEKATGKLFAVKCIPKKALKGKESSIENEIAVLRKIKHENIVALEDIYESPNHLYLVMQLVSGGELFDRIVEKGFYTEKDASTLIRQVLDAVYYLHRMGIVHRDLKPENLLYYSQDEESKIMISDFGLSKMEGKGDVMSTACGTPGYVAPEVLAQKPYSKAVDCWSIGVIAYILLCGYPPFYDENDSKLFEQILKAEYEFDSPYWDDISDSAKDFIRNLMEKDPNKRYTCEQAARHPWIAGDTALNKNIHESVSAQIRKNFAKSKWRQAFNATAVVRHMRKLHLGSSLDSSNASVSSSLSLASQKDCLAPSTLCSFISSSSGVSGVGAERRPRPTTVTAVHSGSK

CN1CCN(C(=O)c2ccc3cc(CCNc4ccnc5ccc(C#N)cc45)ccc3c2)CC1 [compound 6148, 4-((2-(6-(4-methylpiperazine-1-carbonyl)naphthalen-2-yl)ethyl)amino)quinoline-6-carbonitrile]
remaining binding at 2 µM [1]: 74%
remaining binding at 2 µM (BRAF): 84%
remaining binding at 2 µM (CAMK1D): 80%
remaining binding at 2 µM (CLK2): 93%
remaining binding at 2 µM (CLK4): 69%
remaining binding at 2 µM (DDR1): 100%
remaining binding at 2 µM (EPHA2): 100%
remaining binding at 2 µM (EPHB6): 86%
remaining binding at 2 µM (FGFR2): 98%
remaining binding at 2 µM (FGFR4): 96%
remaining binding at 2 µM (FYN): 89%
remaining binding at 2 µM (HIPK2): 67%
remaining binding at 2 µM (HPK1 (MAP4K1)): 94%
remaining binding at 2 µM (KIT): 95%
remaining binding at 2 µM (KIT(A829P)): 82%
remaining binding at 2 µM (LKB1 (STK11)): 87%
remaining binding at 2 µM (MAP3K3): 83%
remaining binding at 2 µM (MAP4K3): 100%
remaining binding at 2 µM (MEK1 (MAP2K1)): 59%
remaining binding at 2 µM (MEK4 (MAP2K4)): 58%
remaining binding at 2 µM (MKK7 (MAP2K7)): 75%
remaining binding at 2 µM (MLK3 (MAP3K11)): 99%
remaining binding at 2 µM (MRCKB (CDC42BPB)): 100%
remaining binding at 2 µM (MUSK): 90%
remaining binding at 2 µM (NEK3): 60%
remaining binding at 2 µM (PDGFRA): 97%
remaining binding at 2 µM (PHKG2): 100%
remaining binding at 2 µM (PIM2): 81%
remaining binding at 2 µM (PKMYT1): 100%
remaining binding at 2 µM (PKN2): 89%
remaining binding at 2 µM (PLK1): 63%
remaining binding at 2 µM [2]: 62%
IC50 (CXCL1): 25 to 35 nM
IC50 (IL8): 25 to 35 nM
IC50 (MYC): 25 to 35 nM

Source: patent US12281080B2, “Quinoline-based compounds and methods of inhibiting CDK8/19” (University of South Carolina, priority 2018, dated 2025)
